Here are results for one compound from patent US12251449B2, “Synthetic multidomain peptide biomaterials that inhibit inducible nitric oxide synthase” (William Marsh Rice University, priority 2019, dated 2025).

*1 amine or outer side, *2 acyl side, *3 side chain or, on linkers, in order; H or OH if unused. Where a SMILES comes first, the peptide text is derived from it. [ ]: non-standard residue; d: D form. X1 = CC(=N)NCCCC[C@H](N[*:1])C(=O)[*:2]

A short description of data set [1]: Live-dead viability of RAW 264.7 cells on MDP hydrogels. It counts as cell-based, mouse. The settings on record: mouse, RAW 264.7 cells cultured on peptide hydrogel (2-D culture); RAW macrophages on 1 wt. % hydrogel, after three days; read-out: cell survival. The procedure:
(§1) Cell culture. For in vitro experiments, mouse RAW 264.7 cells (ATCC TIB-71) were grown in DMEM media supplemented with 10% Heat-Inactivated Fetal Bovine Serum (HI-FBS), L-glutamine, sodium pyruvate, and 1% penicillin-streptomycin. Cells were cultured at 37° C. with 5% CO2 and subcultured using scraping.
(§2) For 2-D culture live-dead viability studies, peptide hydrogels were pipetted into 0.4 cm^2 wells of Lab-Tek 16 well glass chamber slides (Thermo Fischer, Rochester, NY). Gels were pipetted to produce 70 μL pucks with a thickness of 1.75 mm. The gels were carefully pipetted into the bottom of each well and tapped before shear recovery to create flat gel profiles. After pipetting, the samples were allowed to shear recover for 5-10 min before adding 200 μL cell media and 10,000 RAW 264.7 cells. For each experiment time point (days 1 and 3) separate slides with duplicate gels were created. The cell media was changed every 2 days, taking care to not disturb or dislodge the gel material.
(§3) At each desired time point the following procedure was used to stain the cells for live-dead analysis. Live-dead staining solution was prepared in DPBS (Thermo Fisher Scientific, Rockford, IL) with 2 μM Calcein AM (Life Technologies), 4 μM Ethidium homodimer (Life Technologies), and 5 μg/mL Hoechst 33342 (BD Biosciences, San Jose, CA). Cell media was removed from the top of the hydrogel samples, which were then washed with PBS. Samples were then stained with 100 μL of prepared solution by incubating at 37° C. with 5% CO2 for 60 min while protected from light. After staining, the gels were removed from the glass chamber slides and placed in PBS before immediately imaging by confocal. Gels were analyzed by z-stack imaging using a Nikon A1 Confocal Microscope with a 40× water objective (405 nm blue channel laser, 488 nm green channel laser, 561 nm red channel laser). Image processing was done using NIS Elements, and Imaris Cell Counting software was used to quantify live-dead percentages.

The subject of the next data set is RAW 264.7 cells. The data set is described as above. It counts as cell-based, mouse. Particulars: RAW macrophages on 1 wt. % hydrogel, one to three days. On the procedure: as §1, §2, §3
For a further data set, the system named is B16-F0 melanoma tumors. The data set can be described thus: Tumor growth in the B16-F0 melanoma model. The settings on record: monotherapy, single intratumoral injection. It counts as in vivo, mice. On the procedure: Evaluation of in vivo VEGF reduction using murine B16-F0 melanoma tumor model. C57BL/6J male mice were purchased from The Jackson Laboratory. Tumor inoculation was performed when mice reached 10-14 weeks of age. All experiments were performed with approval of IACUC at Baylor College of Medicine (BCM) and followed established protocols. B16-F0 melanoma cell line was purchased from American Type Culture Collection (ATCC) and maintained according to manufacturer instructions (DMEM high-glucose with 10% fetal bovine serum and 1% penicillin/streptomycin). C57BL/6J mice were injected subcutaneously (s.c.) with 3×10^5 B16-F0 cells in a single flank. Once tumors became palpable (day 7 post-inoculation) mice were injected intratumorally (i.t.) with either vehicle buffer control Hank's Balanced Salt Solution (HBSS), free L-NIL dissolved in HBSS at 20 mM, K2-MDP hydrogel at 1 wt. % (5.6 mM peptide), or L-NIL-MDP hydrogel at 1 wt. % (5.2 mM peptide, or approximately 20 mM L-NIL functional groups). All injections were done using 100 μL total injection volume.

Data set [2] can be described thus: IgG release kinetics from hydrogels. It counts as physicochemical. The settings on record: compared with alginate and K2-MDP. The text has this:
Whether the drug-mimicking L-NIL-MDP hydrogel could effectively load and control the delivery of IgG compared to other biomaterials was investigated.

The conditions of data set [3]: prior studies (Leach et al., 2019); cited from earlier work.

Take `CC(=N)NCCCC[C@H](NC(=O)[C@H](CCCCNC(C)=N)NC(=O)[C@H](CC(C)C)NC(=O)[C@H](CO)NC(=O)[C@H](CC(C)C)NC(=O)[C@H](CO)NC(=O)[C@H](CC(C)C)NC(=O)[C@H](CO)NC(=O)[C@H](CC(C)C)NC(=O)[C@H](CO)NC(=O)[C@H](CC(C)C)NC(=O)[C@H](CO)NC(=O)[C@H](CC(C)C)NC(=O)[C@H](CO)NC(=O)[C@H](CCCCNC(C)=N)NC(=O)[C@H](CCCCNC(C)=N)NC(C)=O)C(N)=O` [L-NIL-MDP] (Ac-[X1][X1]SLSLSLSLSLSL[X1][X1]-NH2): the viability at 72 h, 1 wt. % in data set [1] was roughly 95%. Moreover, the “cell attachment, survival and proliferation (in words)” value in the data set on RAW 264.7 cells was “highest degrees of cell attachment and proliferation”. The “tumor growth reduction (in words)” value in the data set with B16-F0 melanoma tumors was “no favorable effect on tumor growth reduction”. For the same compound, in data set [2], the “control of IgG release (in words)” value was “able to control the release of IgG more effectively”. In addition, the “hydrogel observable post injection” value in data set [3] is 21 days.
